From patent EP3922633B1, “METHOD FOR EXTRACTING PYRROLIZIDINE ALKALOIDS” (priority 2020, dated 2021)
Like-named read-outs stand apart in the source and are kept apart here.

Experiments:
[1] = Hydrodistillation of lemon essential oil doped with pyrrolizidine alkaloids; alkaloids assayed in distillate and aqueous phase by UPLC-HRMS/TOF; type: physicochemical; details: for φ Aqueuse (résidu de distillation) CT [ppm]: Concentration théorique; for φ Aqueuse (résidu de distillation) C [ppm] / φ Organique (distillat) C [ppm]: after 2 h hydrodistillation; for φ Organique (distillat) C [ppm]: LOQ : 2 ppb
Protocol: (§1) Dans un ballon de 500 mL, on introduit 300 mL d'eau distillée, un barreau magnétique, quelques pierres ponces et une quantité pesée d'échantillon entre 15 et 30 g.
(§2) Le ballon est alors raccordé à un appareil de type Clevenger et placé dans un bain d'huile chauffant.
(§3) On ajoute 10 mL d'eau distillée et 4 à 5 mL de pentane afin de remplir le séparateur.
(§4) On ouvre l'arrivée d'eau pour le réfrigérant et on porte à reflux pendant deux heures.
(§5) On arrête alors le chauffage et on laisse décanter. La phase organique et la phase aqueuse décantent dans le séparateur et sont recueillies.
(§6) […]. Conditions HR-TOF-MS : Les analyses ont été effectuées sur un système Waters XEVO G2 TOF. Conditions de source ESI : tension capillaire : 0,5 kV, tension de cône : 45 V, cône d'extraction : 4 V, température de source : 120 °C, température de désolvatation : 400 °C, débit de gaz : 10 L/h, débit de gaz de désolvatation : 1200 L/h. Les analyses ont été effectuées en mode positif. Le spectromètre de masse a été étalonné avec du formiate de sodium pour une gamme de masse allant de 50 à 1200 Da. La Leucine-Enképhaline (lockmass) est le standard utilisé pour corriger les masses. Les deux masses caractéristiques de la Leucine-Enképhaline ont été vérifiées (278,1141; 556,2771). Les acquisitions ont été réalisées en mode MSE en utilisant l'argon comme gaz de collision. Fragmentation : Le mode MSE permet l'acquisition simultanée de spectres de masse à l'énergie de collision faible et élevée, le premier permettant d'obtenir un ion parent, le dernier de produire des ions fragments.
(§7) Après dilution des extraits d'huile essentielle dans du méthanol, les alcaloïdes pyrrolizidiniques sont chromatographiés par système RP-UPLC, en mode gradient d'élution, détectés et identifiés par spectrométrie de masse et quantifiés par une méthode d'étalonnage externe.
Des solutions standards d'alcaloïdes pyrrolizidiniques sont préparées comme suit : Dans une fiole jaugée de 100 mL (Vf), on pèse exactement 10 mg (Ms) des substances étalons et on ajuste avec du méthanol. Les solutions sont homogénéisées avec un bain à ultrasons pendant 3 min.
La concentration de la solution standard est donnée par l'équation suivante : C (mg/mL) = (Ms×Pu)/(100×Vf) [formula] • Ms = Poids de la substance standard • Pu = Pureté de la substance étalon en pourcentage
Ensuite, cette solution mère est diluée jusqu'à obtenir les concentrations appropriées pour la sensibilité du détecteur.
(§8) Dans une fiole jaugée de 20 mL, on pèse exactement 1 g (Pe) de l'échantillon et on ajuste avec du méthanol. La solution est homogénéisée pendant 3 min avec un bain à ultrasons, puis filtrée à l'aide d'une seringue sur un filtre en PTFE de 0,25 µm, puis transférée dans un flacon d'injection.
Si nécessaire, cette solution doit être successivement diluée pour tomber dans une plage de linéarité appropriée du détecteur.
(§9) Trois huiles essentielles de citron, d'orange et d'eucalyptus, dopées jusqu'à 100 ppm de chacun des alcaloïdes pyrrolizidiniques et de leurs oxydes respectifs, ont été hydrodistillées séparément pendant deux heures selon le protocole décrit à l'exemple 1. L'expérimentation est réalisée en duplicat.
(§10) Avant et après hydrodistillation, les phases organique et aqueuse sont séparées et injectées en UPLC-HRMS/TOF.

[2] = Presence or absence of pyrrolizidine alkaloid signals (UPLC-HRMS) in doped lemon, orange and eucalyptus essential oils after hydrodistillation; type: physicochemical; details: for profils UPLC-MS ciblés: presence in huile essentielle avec standards et distillée: huile essentielle de citron, likewise essences d'orange et d'eucalyptus (figure 1, figure 2); for signaux dans la phase organique recueillie après hydrodistillation: huiles essentielles de citron, d'orange et d'eucalyptus dopées jusqu'à 100 ppm, 2 h hydrodistillation, UPLC-HRMS/TOF
Protocol: as §1, §2, §3, §4, §5, §6, §7, §8
Afin de démontrer le principe de l'invention, une étude quantitative destinée à montrer la présence ou l'absence d'alcaloïdes pyrrolizidiniques dans des échantillons d'huile essentielle enrichis en alcaloïdes pyrrolizidiniques a été réalisée avant et après hydrodistillation.
Dans cette étude, on a utilisé des alcaloïdes pyrrolizidiniques disponibles commercialement et représentant deux classes précédemment décrites de type II et IV, à savoir : alcaloïde type cyclique (classe la plus représentée) pour la sénécionine, sénécionine-N-oxyde [13268-67-2], rétrorsine, rétrorsine-N-oxyde [15503-86-3], jacobine [3870-67-3], jacobine-N-oxyde [38710-25-7], sénéciphylline, sénéciphylline-N-oxyde [38710-26-8], et alcaloïde type mono-ester pour la lycopsamine [10285-07-1], lycopsamine-N-oxyde [95462-15-0], intermédine [10285-06-0], intermédine-N-oxyde [95462-14-9].
as §9, §10

[3] = test system: rat; details: cited from earlier work
[4] = Tableau 3, Huile essentielle de Citron dopée, (duplicate 2)
[5] = Tableau 3, Huile essentielle de Citron dopée, duplicate 1
[6] = Tableau 4, Huile essentielle de Citron dopée (as titled), (duplicate 2)
[7] = Tableau 4, Huile essentielle de Citron dopée (as titled), duplicate 1
[8] = administrés régulièrement par voie orale

CC(C)[C@](O)(C(=O)OCC1=CCN2CC[C@@H](O)[C@@H]12)[C@@H](C)O (stereo in doubt) [Lycopsamine]
φ Aqueuse (résidu de distillation) CT [ppm] [1, 4]: 0,626 ppm | φ Aqueuse (résidu de distillation) CT [ppm] [1, 5]: 0,656 ppm | φ Aqueuse (résidu de distillation) C [ppm] [1, 4]: 0,698 ppm | φ Organique (distillat) C [ppm] [1, 4]: < LoQ | φ Aqueuse (résidu de distillation) C [ppm] [1, 5]: 0,678 ppm | φ Organique (distillat) C [ppm] [1, 5]: < LoQ | φ Aqueuse (résidu de distillation) CT [ppm] [1, 6]: 0.597 ppm | φ Aqueuse (résidu de distillation) CT [ppm] [1, 7]: 0.550 ppm | φ Aqueuse (résidu de distillation) C [ppm] [1, 6]: 0.621 ppm | φ Organique (distillat) C [ppm] [1, 6]: < LoQ | φ Aqueuse (résidu de distillation) C [ppm] [1, 7]: 0.588 ppm | φ Organique (distillat) C [ppm] [1, 7]: < LoQ | profils UPLC-MS ciblés: presence in huile essentielle avec standards et distillée [2]: absentes | signaux dans la phase organique recueillie après hydrodistillation [2]: absence des signaux

CC(C)[C@@](O)(C(=O)OCC1=CC[N+]2([O-])CC[C@@H](O)[C@@H]12)[C@H](C)O (stereo partly drawn) [Lycopsamine-N-oxyde]
φ Aqueuse (résidu de distillation) CT [ppm] [1, 6]: 0.030 ppm | φ Aqueuse (résidu de distillation) CT [ppm] [1, 7]: 0.028 ppm | φ Aqueuse (résidu de distillation) C [ppm] [1, 6]: 0.027 ppm | φ Organique (distillat) C [ppm] [1, 6]: < LoQ | φ Aqueuse (résidu de distillation) C [ppm] [1, 7]: 0.024 ppm | φ Organique (distillat) C [ppm] [1, 7]: < LoQ | signaux dans la phase organique recueillie après hydrodistillation [2]: absence des signaux

C/C=C1/C[C@@H](C)[C@](O)(CO)C(=O)OCC2=CC[N@@+]3([O-])CC[C@@H](OC1=O)[C@@H]23 [Rétrorsine-N-oxyde]
φ Aqueuse (résidu de distillation) CT [ppm] [1, 4]: 0,621 ppm | φ Aqueuse (résidu de distillation) CT [ppm] [1, 5]: 0,662 ppm | φ Aqueuse (résidu de distillation) C [ppm] [1, 4]: 0,605 ppm | φ Organique (distillat) C [ppm] [1, 4]: < LoQ | φ Aqueuse (résidu de distillation) C [ppm] [1, 5]: 0,691 ppm | φ Organique (distillat) C [ppm] [1, 5]: < LoQ | φ Aqueuse (résidu de distillation) CT [ppm] [1, 6]: 0.593 ppm | φ Aqueuse (résidu de distillation) CT [ppm] [1, 7]: 0.457 ppm | φ Aqueuse (résidu de distillation) C [ppm] [1, 6]: 0.612 ppm | φ Organique (distillat) C [ppm] [1, 6]: < LoQ | φ Aqueuse (résidu de distillation) C [ppm] [1, 7]: 0.678 ppm | φ Organique (distillat) C [ppm] [1, 7]: < LoQ | profils UPLC-MS ciblés: presence in huile essentielle avec standards et distillée [2]: absentes | signaux dans la phase organique recueillie après hydrodistillation [2]: absence des signaux

C/C=C1\C[C@@H](C)[C@](O)(CO)C(=O)OCC2=CCN3CC[C@@H](OC1=O)[C@@H]23 [Rétrorsine]
φ Aqueuse (résidu de distillation) CT [ppm] [1, 4]: 0,868 ppm | φ Aqueuse (résidu de distillation) CT [ppm] [1, 5]: 0,806 ppm | φ Aqueuse (résidu de distillation) C [ppm] [1, 4]: 0,839 ppm | φ Organique (distillat) C [ppm] [1, 4]: < LoQ | φ Aqueuse (résidu de distillation) C [ppm] [1, 5]: 0,810 ppm | φ Organique (distillat) C [ppm] [1, 5]: < LoQ | φ Aqueuse (résidu de distillation) CT [ppm] [1, 6]: 0.828 ppm | φ Aqueuse (résidu de distillation) CT [ppm] [1, 7]: 0.797 ppm | φ Aqueuse (résidu de distillation) C [ppm] [1, 6]: 0.711 ppm | φ Organique (distillat) C [ppm] [1, 6]: < LoQ | φ Aqueuse (résidu de distillation) C [ppm] [1, 7]: 0.663 ppm | φ Organique (distillat) C [ppm] [1, 7]: < LoQ | profils UPLC-MS ciblés: presence in huile essentielle avec standards et distillée [2]: absentes | signaux dans la phase organique recueillie après hydrodistillation [2]: absence des signaux | tumeurs hépatiques [3, 8]: provoquer des tumeurs hépatiques

CC(C)[C@@](O)(C(=O)OCC1=CC[N+]2([O-])CC[C@@H](O)[C@@H]12)[C@@H](C)O (stereo partly drawn) [intermédine-N-oxyde]
signaux dans la phase organique recueillie après hydrodistillation [2]: absence des signaux

C[C@@H]1C[C@@]2(O[C@H]2C)C(=O)O[C@@H]2CC[N+]3([O-])CC=C(COC(=O)[C@]1(C)O)[C@H]23 (stereo partly drawn) [jacobine-N-oxyde]
signaux dans la phase organique recueillie après hydrodistillation [2]: absence des signaux

C[C@@H]1C[C@@]2(O[C@H]2C)C(=O)O[C@@H]2CCN3CC=C(COC(=O)[C@]1(C)O)[C@H]23 [jacobine]
signaux dans la phase organique recueillie après hydrodistillation [2]: absence des signaux

C[C@H]1C(=O)O[C@@H]2CCN3CC=C(COC(=O)[C@](C)(O)[C@]1(C)O)[C@H]23 [monocrotaline]
tumeurs hépatiques ([3]; in vivo): provoquer des tumeurs hépatiques

C/C=C1/C[C@@H](C)[C@@](C)(O)C(=O)OC/C2=C/CN(C)CC[C@@H](OC1=O)C2=O [senkirkine]
tumeurs hépatiques [3, 8]: provoquer des tumeurs hépatiques

C/C=C(\C)C(=O)O[C@@H]1CCN2CC=C(COC(=O)[C@](O)(C(C)C)[C@H](C)O)[C@H]12 [symphytine]
tumeurs hépatiques [3, 8]: provoquer des tumeurs hépatiques

C=C1C/C(=C/C)C(=O)O[C@@H]2CCN3CC=C(COC(=O)[C@]1(C)O)[C@H]23 [séneciphylline, sénéciphylline]
signaux dans la phase organique recueillie après hydrodistillation [2]: absence des signaux

C=C1C/C(=C/C)C(=O)O[C@@H]2CC[N+]3([O-])CC=C(COC(=O)[C@]1(C)O)[C@H]23 (stereo partly drawn) [séneciphylline-N-oxyde, sénéciphylline-N-oxyde]
signaux dans la phase organique recueillie après hydrodistillation [2]: absence des signaux

C/C=C1/C[C@@H](C)[C@@](C)(O)C(=O)OCC2=CC[N+]3([O-])CC[C@@H](OC1=O)[C@@H]23 (stereo partly drawn) [sénécionine-N-oxyde]
signaux dans la phase organique recueillie après hydrodistillation [2]: absence des signaux

C/C=C1/C[C@@H](C)[C@@](C)(O)C(=O)OCC2=CCN3CC[C@@H](OC1=O)[C@@H]23 [sénécionine]
signaux dans la phase organique recueillie après hydrodistillation [2]: absence des signaux
